These results are taken from PubChem BioAssay (NCI).

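How tested: cells in 96-well plates exposed to compound for 48 hours at five concentrations. TGI marks complete inhibition of growth.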

Among the test systems are EKVX NSCLC; HOP-62 NSCLC; HCT-15 colon; SF-295 CNS; COLO 205 colon; K-562 leukemia; A498 renal; MDA-N; IGROV1 ovarian; SK-MEL-28 melanoma; NCI/ADR-RES ovarian.
Assay in all cases: NCI tumour cell line growth inhibition, 48 h

With `Cn1c(=O)c2c(nc3n2CCC(=O)N3CCCCl)n(C)c1=O`, the TGI with EKVX NSCLC, with HOP-62 NSCLC, in the assay on HCT-15 colon, with SF-295 CNS, in the assay with COLO 205 colon and with K-562 leukemia was greater than 100 µM throughout. Also, the TGI with A498 renal, in the assay with MDA-N, with IGROV1 ovarian, with SK-MEL-28 melanoma and in the assay on NCI/ADR-RES ovarian was greater than 100 µM in each case.
In the case of `Cc1ccc(/C(O)=C/c2nc3cccnc3[nH]c2=O)cc1`, the TGI in the assay with EKVX NSCLC is greater than 100 µM; with HOP-62 NSCLC, 85.9 µM; in the assay with HCT-15 colon, greater than 100 µM; in the assay with SF-295 CNS, greater than 100 µM; in the assay with COLO 205 colon it was greater than 100 µM; in the assay on K-562 leukemia, greater than 100 µM. The TGI in the assay with A498 renal, with MDA-N, in the assay with IGROV1 ovarian, in the assay with SK-MEL-28 melanoma and in the assay with NCI/ADR-RES ovarian was greater than 100 µM throughout.
`C/C(=N/NC(=S)N(C)C)c1ccccc1O`: the TGI in the assay with EKVX NSCLC was greater than 100 µM; with HOP-62 NSCLC, greater than 100 µM; with HCT-15 colon it was greater than 100 µM; in the assay with SF-295 CNS, greater than 100 µM; with COLO 205 colon it was greater than 58.6 µM; in the assay with K-562 leukemia, greater than 100 µM. Moreover, the TGI in the assay on A498 renal is 97.9 µM; in the assay on MDA-N it was greater than 100 µM; with IGROV1 ovarian, greater than 100 µM; in the assay with SK-MEL-28 melanoma, greater than 100 µM; with NCI/ADR-RES ovarian, 13.8 µM.
For `CCNC(=O)NNc1ncnc2c1c(-c1ccc(Cl)cc1)cn2-c1ccc(C)cc1`, the TGI with EKVX NSCLC was 65.4 µM; in the assay on HOP-62 NSCLC it was 35.2 µM; with HCT-15 colon, 47.8 µM; in the assay on SF-295 CNS it was 30.5 µM; in the assay with COLO 205 colon, 29.9 µM; with K-562 leukemia it was 46.5 µM. Also, the TGI with A498 renal is 30.6 µM; with MDA-N, 36.8 µM; in the assay on IGROV1 ovarian, 37.7 µM; in the assay with SK-MEL-28 melanoma, 33.3 µM; in the assay with NCI/ADR-RES ovarian, 38.4 µM.
For the molecule `Oc1cc(Cl)cc2cc(Cl)cnc12`, the TGI in the assay with EKVX NSCLC is 10.6 µM; with HOP-62 NSCLC, 89.9 µM; with HCT-15 colon it was 27.3 µM; in the assay on SF-295 CNS it was 88.7 µM; in the assay with COLO 205 colon, greater than 100 µM; with K-562 leukemia, 10.6 µM. For the same molecule, the TGI is 34.5 µM with A498 renal; greater than 100 µM with MDA-N; 22.6 µM with IGROV1 ovarian; greater than 100 µM in the assay with SK-MEL-28 melanoma; 6.67 µM with NCI/ADR-RES ovarian.
As for `N/C(=N\S(=O)(=O)c1ccc(-c2ccccn2)s1)Nc1ccc(Cl)cc1`, the TGI in the assay on EKVX NSCLC was 26 µM; with HOP-62 NSCLC, 39.2 µM; with HCT-15 colon, 38 µM; in the assay on SF-295 CNS, 40.3 µM; with COLO 205 colon, 35.9 µM; in the assay on K-562 leukemia, 66.2 µM. Also, the TGI in the assay on A498 renal is 25.8 µM; with MDA-N, 19.6 µM; with IGROV1 ovarian, 34.1 µM; in the assay on SK-MEL-28 melanoma, 37.8 µM; with NCI/ADR-RES ovarian, 43.5 µM.
As to `C=CCOC(=O)c1c(C)n([O-])c2cc(Cl)c(Cl)cc2[n+]1=O`, the TGI with EKVX NSCLC was 41.1 µM; in the assay with HOP-62 NSCLC it was 57.6 µM; with HCT-15 colon, 31.7 µM; with SF-295 CNS, 86.9 µM; in the assay on COLO 205 colon, 32.6 µM; in the assay on K-562 leukemia it was greater than 100 µM. Further, the TGI with A498 renal was 62.6 µM; in the assay with MDA-N it was 45.6 µM; in the assay on IGROV1 ovarian, 22.8 µM; with SK-MEL-28 melanoma, 30.3 µM; with NCI/ADR-RES ovarian, 46.9 µM.
Take `C=C1C(=O)[C@]23C[C@H]1C[C@@H](O)[C@H]2[C@]1(COC3=O)[C@@H](OC(C)=O)CC[C@@](C)(COC(C)=O)[C@H]1C=O`: the TGI is greater than 50 µM in the assay with EKVX NSCLC; greater than 50 µM with HOP-62 NSCLC; greater than 50 µM with HCT-15 colon; greater than 50 µM with SF-295 CNS; 16.4 µM with COLO 205 colon; 14.1 µM in the assay on K-562 leukemia. In addition, the TGI in the assay on A498 renal, in the assay on MDA-N, in the assay on IGROV1 ovarian, in the assay on SK-MEL-28 melanoma and with NCI/ADR-RES ovarian was greater than 50 µM each time.
As for `N#CCCN(CCC#N)c1ccc(/C=C2\SC(=S)NC2=O)cc1`, the TGI in the assay on EKVX NSCLC, with HOP-62 NSCLC, in the assay on HCT-15 colon, with SF-295 CNS, in the assay on COLO 205 colon and in the assay on K-562 leukemia was greater than 100 µM each time. Moreover, the TGI in the assay with A498 renal, with MDA-N, in the assay with IGROV1 ovarian, with SK-MEL-28 melanoma and in the assay on NCI/ADR-RES ovarian was greater than 100 µM throughout.
In the case of `NC(=S)Nc1ccc2c(c1)oc1ccccc12`, the TGI in the assay on EKVX NSCLC, with HOP-62 NSCLC, in the assay on HCT-15 colon, in the assay on SF-295 CNS, in the assay with COLO 205 colon and in the assay on K-562 leukemia was greater than 100 µM in each case. For the same molecule, the TGI with A498 renal, in the assay on MDA-N, in the assay with IGROV1 ovarian, with SK-MEL-28 melanoma and in the assay on NCI/ADR-RES ovarian was greater than 100 µM each time.
Take `COc1ccc(C(=O)c2c(-c3ccccc3NC(=O)C(F)(F)F)[nH]c3ccccc23)cc1`: the TGI in the assay with EKVX NSCLC was 24.4 µM; in the assay on HOP-62 NSCLC, 22.1 µM; in the assay with HCT-15 colon, 19.9 µM; in the assay with SF-295 CNS it was 25.5 µM; with COLO 205 colon, 16.1 µM; in the assay with K-562 leukemia, 32.7 µM. The TGI with A498 renal is 4.7 µM; in the assay on MDA-N it was 29.3 µM; in the assay on IGROV1 ovarian, 24.3 µM; in the assay with SK-MEL-28 melanoma, 27.6 µM; in the assay on NCI/ADR-RES ovarian, 28.8 µM.
